Test results as given in ChEMBL document CHEMBL1148044, “Isorawsonol and related IMP dehydrogenase inhibitors from the tropical green alga Avrainvillea rawsonii” (J Nat Prod, 1994).

Assay: Inhibition of human recombinant IMPDH assessed as NADH formation by spectrophotometry; call rule not given here

IC50	IC50 (read-out: IC50) [µM]	SMILES
Not Active	–	COCc1cc(Br)c(O)c(O)c1Cc1ccc(O)c(Br)c1 [AVRAINVILLEOL METHYL ETHER]
–	10	COCc1cc(Br)c(O)c(O)c1Cc1cc(Br)c(O)c(Cc2cc(Br)c(O)c(O)c2Cc2ccc(O)c(Br)c2)c1 [RAWSONOL]
–	7.4	OCc1c(Cc2ccc(O)c(Br)c2)c(O)c(O)c(Br)c1Cc1cc(Br)c(O)c(O)c1Cc1ccc(O)c(Br)c1 [ISORAWSONOL]
–	18	OCc1cc(Br)c(O)c(O)c1Cc1ccc(O)c(Br)c1 [AVRAINVILLEOL]
Not Active	–	OCc1cc(O)c(O)c(Br)c1
